One assay deals with KMS.12.BM cells. The assay can be described thus: KMS.12.BM Cell Viability Assay (Example B1). In kind it is cell-based, human. Particulars: Homo sapiens, 72 h, 3 days, Cell Titer-GLO, read-out: KMS cellular IC50. The method in brief:
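KMS.12.BM human myeloma cells, 5000 cells/well in RPMI with 10% FBS, exposed to a compound concentration range for 3 days. Viable cells measured by ATP-based Cell Titer-GLO luminescence after 10 min at room temperature.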
(In general: In ATP-based viability assays light output follows the ATP content of the culture.)

In a further assay the test system is C-myc in KMS.12.BM cells. The assay can be described thus: KMS.12.BM C-Myc ELISA Assay (Example C1). The assay is classed as cell-based. Particulars: Homo sapiens, 2 h. The method, then: KMS.12.BM C-Myc ELISA Assay
KMS.12.BM cell line (human myeloma) was purchased from JCRB (Osaka, Japan) and maintained in RPMI with 10% FBS culture medium. To measure the C-myc inhibitory activity of the compounds, the KMS.12.BM cells are plated in the RPMI culture medium at 75000 cells/well/per 200 μL into a 96-well flat bottom polystyrene tissue culture plate (Corning through VWR, NJ), in the presence or absence of a concentration range of test compounds. After 2 h, cells are pelleted and lysed with Cell Extraction Buffer (BioSource, Carlsbad, Calif.) in the presence of protease inhibitors (Life Technologies, Grand Island, N.Y. and Sigma, St Louis, Mo.). Clarified lyses are tested in a C-myc commercial ELISA (Life Technologies, Grand Island, N.Y.).
Background: An ELISA detects its analyte on a solid surface through an enzyme-linked reagent.

Where a name gives a salt, the structure may show the parent alone. Read-outs that look alike come from different tables or passages of the source.

`Cc1noc(C)c1-c1ccc2nc(C)n3c2c1OCC3c1ccccc1` (stereo not drawn) [Example 9, 7-(3,5-Dimethylisoxazol-4-yl)-2-methyl-4-phenyl-4,5-dihydroimidazo[1,5,4-de][1,4]benzoxazine]: the IC50 with KMS.12.BM cells and in the assay on C-myc in KMS.12.BM cells was below 1000 nM each time.

For `Cc1noc(C)c1-c1ccc2c3c1OCC(c1ccccc1)n3c(=O)n2CCN1CCOCC1` (stereo not drawn) [Example 10, 7-(3,5-Dimethylisoxazol-4-yl)-1-(2-morpholin-4-ylethyl)-4-phenyl-4,5-dihydroimidazo[1,5,4-de][1,4]benzoxazin-2(1H)-one], the IC50 in the assay with KMS.12.BM cells (KMS-12-BM) and with C-myc in KMS.12.BM cells was below 1000 nM in each case.

Regarding `Cc1noc(C)c1-c1ccc2[nH]c(=O)n3c2c1OCC3c1nccs1` (stereo not drawn) [Example 21, 7-(3,5-Dimethylisoxazol-4-yl)-4-(1,3-thiazol-2-yl)-4,5-dihydroimidazo[1,5,4-de][1,4]benzoxazin-2(1H)-one], the IC50 in the assay on KMS.12.BM cells and in the assay with C-myc in KMS.12.BM cells was below 1000 nM each time.

For `Cc1noc(C)c1-c1ccc2nc(NC(C)C)n3c2c1OCC3c1ccccc1` (stereo not drawn) [Example 25, 7-(3,5-Dimethylisoxazol-4-yl)-N-isopropyl-4-phenyl-4,5-dihydroimidazo[1,5,4-de][1,4]benzoxazin-2-amine], the IC50 with KMS.12.BM cells and in the assay with C-myc in KMS.12.BM cells was below 1000 nM throughout.

Regarding `CNc1nc2ccc(-c3c(C)noc3C)c3c2n1C(c1ccccc1)CO3` (stereo not drawn) [Example 26, 7-(3,5-Dimethylisoxazol-4-yl)-N-methyl-4-phenyl-4,5-dihydroimidazo[1,5,4-de][1,4]benzoxazin-2-amine], the IC50 in the assay with KMS.12.BM cells and in the assay with C-myc in KMS.12.BM cells was below 1000 nM each time.

As for `CCNc1nc2ccc(-c3c(C)noc3C)c3c2n1C(c1ccccc1)CO3` (stereo not drawn) [Example 27, 7-(3,5-Dimethylisoxazol-4-yl)-N-ethyl-4-phenyl-4,5-dihydroimidazo[1,5,4-de][1,4]benzoxazin-2-amine], the IC50 in the assay on KMS.12.BM cells and in the assay on C-myc in KMS.12.BM cells was below 1000 nM throughout.

`Cc1noc(C)c1-c1ccc2nc(N(C)C)n3c2c1OCC3c1ccccc1` (stereo not drawn) [Example 28, 7-(3,5-Dimethylisoxazol-4-yl)-N,N-dimethyl-4-phenyl-4,5-dihydroimidazo[1,5,4-de][1,4]benzoxazin-2-amine]: the IC50 in the assay with KMS.12.BM cells and with C-myc in KMS.12.BM cells was below 1000 nM each time.

For the compound `Cc1noc(C)c1-c1ccc2nc(NCCO)n3c2c1OCC3c1ccccc1` (stereo not drawn) [Example 29, 2-{[7-(3,5-Dimethylisoxazol-4-yl)-4-phenyl-4,5-dihydroimidazo[1,5,4-de][1,4]benzoxazin-2-yl]amino}ethanol], the IC50 in the assay on KMS.12.BM cells and in the assay with C-myc in KMS.12.BM cells was below 1000 nM in each case.

Consider `Cc1noc(C)c1-c1ccc2nc(NCC(C)O)n3c2c1OCC3c1ccccc1` (stereo not drawn) [Example 32, 1-{[7-(3,5-Dimethylisoxazol-4-yl)-4-phenyl-4,5-dihydroimidazo[1,5,4-de][1,4]benzoxazin-2-yl]amino}propan-2-ol], for which the IC50 in the assay with KMS.12.BM cells and in the assay on C-myc in KMS.12.BM cells was below 1000 nM in each case.

Take `Cc1noc(C)c1-c1ccc2nc(N(C)CCO)n3c2c1OCC3c1ccccc1` (stereo not drawn) [Example 34, 2-[[7-(3,5-Dimethylisoxazol-4-yl)-4-phenyl-4,5-dihydroimidazo[1,5,4-de][1,4]benzoxazin-2-yl](methyl)amino]ethanol]: the IC50 with KMS.12.BM cells and with C-myc in KMS.12.BM cells was below 1000 nM throughout.

In the case of `Cc1noc(C)c1-c1ccc2[nH]c(=O)n3c2c1OCC3c1ccccc1OCC(=O)NCCO` (stereo not drawn) [Example 50, 2-{2-[7-(3,5-Dimethylisoxazol-4-yl)-2-oxo-1,2,4,5-tetrahydroimidazo[1,5,4-de][1,4]benzoxazin-4-yl]phenoxy}-N-(2-hydroxyethyl)acetamide], the IC50 with KMS.12.BM cells and with C-myc in KMS.12.BM cells was below 1000 nM in each case.

As to `Cc1noc(C)c1-c1ccc2nc(C(=O)N3CCOCC3)n3c2c1OC[C@@H]3c1ccccn1` [Example 94, (4S)-7-(3,5-Dimethylisoxazol-4-yl)-2-(morpholin-4-ylcarbonyl)-4-pyridin-2-yl-4,5-dihydroimidazo[1,5,4-de][1,4]benzoxazine], the IC50 in the assay with KMS.12.BM cells and in the assay on C-myc in KMS.12.BM cells was below 1000 nM throughout.

Regarding `CNC(=O)c1nc2ccc(-c3c(C)noc3C)c3c2n1[C@@H](c1ccccn1)CO3` [Example 95, (4S)-7-(3,5-Dimethylisoxazol-4-yl)-N-methyl-4-pyridin-2-yl-4,5-dihydroimidazo[1,5,4-de][1,4]benzoxazine-2-carboxamide], the IC50 in the assay with KMS.12.BM cells and in the assay with C-myc in KMS.12.BM cells was below 1000 nM in each case.

As to `Cc1noc(C)c1-c1ccc2nc(C(N)=O)n3c2c1OC[C@@H]3c1ccccn1` [Example 96, (4S)-7-(3,5-Dimethylisoxazol-4-yl)-4-pyridin-2-yl-4,5-dihydroimidazo[1,5,4-de][1,4]benzoxazine-2-carboxamide], the IC50 in the assay on KMS.12.BM cells and in the assay with C-myc in KMS.12.BM cells was below 1000 nM in each case.

Regarding `CC(=O)N1CCC(c2nc3ccc(-c4c(C)noc4C)c4c3n2[C@@H](c2ccccn2)CO4)CC1` [Example 109, (4S)-2-(1-Acetylpiperidin-4-yl)-7-(3,5-dimethylisoxazol-4-yl)-4-pyridin-2-yl-4,5-dihydroimidazo[1,5,4-de][1,4]benzoxazine], the IC50 with KMS.12.BM cells and in the assay with C-myc in KMS.12.BM cells was below 1000 nM each time.

Consider `CC(=O)N1CC=C(c2nc3ccc(-c4c(C)noc4C)c4c3n2[C@@H](c2ccccn2)CO4)CC1` [Example 110, (4S)-2-(1-acetyl-1,2,3,6-tetrahydropyridin-4-yl)-7-(3,5-dimethylisoxazol-4-yl)-4-pyridin-2-yl-4,5-dihydroimidazo[1,5,4-de][1,4]benzoxazine], for which the IC50 in the assay with KMS.12.BM cells and in the assay on C-myc in KMS.12.BM cells was below 1000 nM each time.

On to `Cc1noc(C)c1-c1ccc2[nH]c(=O)n3c2c1OCC3c1cccnc1C(N)=O` (stereo not drawn) [Example 127, 3-[7-(3,5-Dimethylisoxazol-4-yl)-2-oxo-1,2,4,5-tetrahydroimidazo[1,5,4-de][1,4]benzoxazin-4-yl]pyridine-2-carboxamide trifluoroacetate], for which the IC50 in the assay on KMS.12.BM cells and in the assay with C-myc in KMS.12.BM cells was below 1000 nM throughout.

For the compound `CNC(=O)c1ncccc1C1COc2c(-c3c(C)noc3C)ccc3[nH]c(=O)n1c23` (stereo not drawn) [Example 128, 3-[7-(3,5-Dimethylisoxazol-4-yl)-2-oxo-1,2,4,5-tetrahydroimidazo[1,5,4-de][1,4]benzoxazin-4-yl]-N-methylpyridine-2-carboxamide], the IC50 with KMS.12.BM cells and in the assay on C-myc in KMS.12.BM cells was below 1000 nM throughout.

Consider `Cc1noc(C)c1-c1ccc2[nH]c(=O)n3c2c1OCC3c1cccnc1CN` (stereo not drawn) [Example 130, 4-[2-(Aminomethyl)pyridin-3-yl]-7-(3,5-dimethylisoxazol-4-yl)-4,5-dihydroimidazo[1,5,4-de][1,4]benzoxazin-2(1H)-one bis(trifluoroacetate)], for which the IC50 in the assay with KMS.12.BM cells and in the assay on C-myc in KMS.12.BM cells was below 1000 nM each time.

Regarding `CC(=O)NCc1cc(-c2c(C)noc2C)c2c3c1[nH]c(=O)n3[C@@H](c1ccccn1)CO2` [Example 138, N-{[(4S)-7-(3,5-Dimethylisoxazol-4-yl)-2-oxo-4-pyridin-2-yl-1,2,4,5-tetrahydroimidazo[1,5,4-de][1,4]benzoxazin-9-yl]methyl}acetamide trifluoroacetate], the IC50 in the assay with KMS.12.BM cells and in the assay with C-myc in KMS.12.BM cells was below 1000 nM throughout.

As for `Cc1noc(C)c1-c1cc(CNC(=O)Cc2ccccc2)c2[nH]c(=O)n3c2c1OC[C@@H]3c1ccccn1` [Example 139, N-{[(4S)-7-(3,5-Dimethylisoxazol-4-yl)-2-oxo-4-pyridin-2-yl-1,2,4,5-tetrahydroimidazo[1,5,4-de][1,4]benzoxazin-9-yl]methyl}-2-phenylacetamide], the IC50 is below 1000 nM with KMS.12.BM cells and 1000 to 10000 nM in the assay with C-myc in KMS.12.BM cells.

On to `COCC(=O)NCc1cc(-c2c(C)noc2C)c2c3c1[nH]c(=O)n3[C@@H](c1ccccn1)CO2` [Example 140, N-{[(4S)-7-(3,5-Dimethylisoxazol-4-yl)-2-oxo-4-pyridin-2-yl-1,2,4,5-tetrahydroimidazo[1,5,4-de][1,4]benzoxazin-9-yl]methyl}-2-methoxyacetamide], for which the IC50 with KMS.12.BM cells and in the assay on C-myc in KMS.12.BM cells was below 1000 nM each time.

`Cc1noc(C)c1-c1cc(CNS(C)(=O)=O)c2[nH]c(=O)n3c2c1OC[C@@H]3c1ccccn1` [Example 141, N-{[(4S)-7-(3,5-Dimethylisoxazol-4-yl)-2-oxo-4-pyridin-2-yl-1,2,4,5-tetrahydroimidazo[1,5,4-de][1,4]benzoxazin-9-yl]methyl}methanesulfonamide]: the IC50 with KMS.12.BM cells and with C-myc in KMS.12.BM cells was below 1000 nM throughout.

As for `Cc1noc(C)c1-c1cc(CNC(=O)NC(C)C)c2[nH]c(=O)n3c2c1OC[C@@H]3c1ccccn1` [Example 142, N-{[(4S)-7-(3,5-Dimethylisoxazol-4-yl)-2-oxo-4-pyridin-2-yl-1,2,4,5-tetrahydroimidazo[1,5,4-de][1,4]benzoxazin-9-yl]methyl}-N′-isopropylurea], the IC50 with KMS.12.BM cells (KMS-12-BM) and in the assay with C-myc in KMS.12.BM cells was below 1000 nM throughout.

The term IC50 denotes the concentration needed to halve the response being measured.
